Test results taken from US20070128217A1 (priority 2003, published 2007).

Assays:
[1] = tested on: rabbit serum obtained by immunizing a rabbit with the SARS-CoV strain Frankfurt 1; format: binding; design: Binding of a rabbit serum to linear peptides / Binding of a rabbit serum to looped peptides / Rabbit serum linear peptides / Rabbit serum looped peptides / Binding of a rabbit serum to linear peptides of protein N of SARS-CoV Urbani (Rabbit serum linear peptides) / Binding of a rabbit serum to looped/cyclic peptides of protein N of SARS-CoV Urbani (Rabbit serum looped peptides): unit not given here
[2] = tested on: control sera (pooled serum of ten healthy LUMC hospital workers; commercial negative donor pooled serum from the Dutch bloodbank); format: binding, human; design: Binding of Control serum LUMC to linear peptides / Binding of Control serum Blood-bank to linear peptides / Binding of Control serum LUMC to looped peptides / Binding of Control Serum Blood-Bank to Looped peptides / Binding of Control serum LUMC to linear peptides of the protein M of SARS-CoV Urbani / Binding of Control serum Blood-bank to linear peptides of the protein M of SARS-CoV Urbani / Binding of Control serum LUMC to looped peptides of the protein M of SARS-CoV Urbani / Binding of Control Serum Blood-Bank to Looped peptides of the protein M of SARS-CoV Urbani: unit not given here
[3] = tested on: antibodies in sera from SARS patients (sera 1a, 1b, 2, 6, 37, 62, London, SARS-yellow, SARS-green); format: binding, human; design: Binding of serum 6 to linear peptides of protein X1 of SARS-CoV Urbani / Binding of serum 37 to linear peptides of protein X1 of SARS-CoV Urbani / Binding of serum 6 to looped/cyclic peptide (PEPSCAN-ELISA) / Binding of serum 37 to looped/cyclic peptide (PEPSCAN-ELISA) / Binding of serum 37 to looped/cyclic peptides of protein X1 of SARS-CoV Urbani / Binding of serum 6 to linear peptides of protein X2 / Binding of serum 37 to linear peptides of protein X2 / Binding of serum 37 to looped/cyclic peptides of protein X2 of SARS-CoV Urbani / Binding of serum 6 to linear peptides of protein M of SARS-CoV Urbani / Binding of serum 37 to linear peptides of protein M of SARS-CoV Urbani / Binding of serum 6 to looped/cyclic peptides of protein M of SARS-CoV Urbani / Binding of serum 37 to looped/cyclic peptides of protein M of SARS-CoV Urbani / Binding of serum 6 to linear peptides of protein X3 of SARS-CoV Urbani / Binding of serum 37 to linear peptides of protein X3 of SARS-CoV Urbani / Binding of serum 37 to looped/cyclic peptides of protein X3 of SARS-CoV Urbani / Binding of serum 6 to linear peptides of protein X4 of SARS-CoV Urbani / Binding of serum 37 to linear peptides of protein X4 of SARS-CoV Urbani / Binding of serum 37 to looped/cyclic peptides of protein X4 of SARS-CoV Urbani / Binding of serum 6 to linear peptides of protein X5 of SARS-CoV Urbani / Binding of serum 37 to linear peptides of protein X5 of SARS-CoV Urbani / Binding of serum 37 to looped/cyclic peptides of protein X5 of SARS-CoV Urbani / Binding of serum 6 to linear peptides of protein N of SARS-CoV Urbani / Binding of serum 37 to linear peptides of protein N of SARS-CoV Urbani / Binding of serum 6 to linear peptide (PEPSCAN-ELISA) / Binding of serum 1a to looped/cyclic peptides of protein N of SARS-CoV Urbani / Binding of serum 1b to looped/cyclic peptides of protein N of SARS-CoV Urbani / Binding of serum 2 to looped/cyclic peptides of protein N of SARS-CoV Urbani / Binding of serum 6 to looped/cyclic peptides of protein N of SARS-CoV Urbani / Binding of serum 37 to looped/cyclic peptides of protein N of SARS-CoV Urbani / Binding of serum 62 to looped/cyclic peptides of protein N of SARS-CoV Urbani / Binding of serum London to looped/cyclic peptides of protein N of SARS-CoV Urbani / Binding of serum SARS-green to looped/cyclic peptides of protein N of SARS-CoV Urbani: unit not given here

Sequence: VASFRLFARTRSMWS
- Rabbit serum linear peptides [1]: 0.8
- Rabbit serum looped peptides [1]: 0.4
- Binding of Control Serum Blood-Bank to Looped peptides of the protein M of SARS-CoV Urbani [2]: 0.8
- Binding of Control serum Blood-bank to linear peptides of the protein M of SARS-CoV Urbani [2]: 0.7
- Binding of Control serum LUMC to linear peptides of the protein M of SARS-CoV Urbani [2]: 0.4
- Binding of Control serum LUMC to looped peptides of the protein M of SARS-CoV Urbani [2]: 0.6
- Binding of serum 1a to linear peptides of protein M of SARS-CoV Urbani [3]: 0.7
- Binding of serum 1b to linear peptides of protein M of SARS-CoV Urbani [3]: 0.5
- Binding of serum 2 to linear peptides of protein M of SARS-CoV Urbani [3]: 0.5
- Binding of serum 6 to linear peptides of protein M of SARS-CoV Urbani [3]: 0.3
- Binding of serum 37 to linear peptides of protein M of SARS-CoV Urbani [3]: 0.7
- Binding of serum 62 to linear peptides of protein M of SARS-CoV Urbani [3]: 0.8
- Binding of serum London to linear peptides of protein M of SARS-CoV Urbani [3]: 0.3
- Binding of serum SARS-green to linear peptides of protein M of SARS-CoV Urbani [3]: 0.3
- Binding of serum SARS-yellow to linear peptides of protein M of SARS-CoV Urbani [3]: 0.0
- Recognition of the peptide by sera of SARS-CoV infected individuals, and form (linear, looped/cyclic) in which it is recognized [3]: recognized in looped/cyclic form

Sequence: VFLWLLWPVTLACFV
- Rabbit serum linear peptides [1]: 0.3
- Rabbit serum looped peptides [1]: 0.3
- Binding of Control Serum Blood-Bank to Looped peptides of the protein M of SARS-CoV Urbani [2]: 0.8
- Binding of Control serum Blood-bank to linear peptides of the protein M of SARS-CoV Urbani [2]: 0.6
- Binding of Control serum LUMC to linear peptides of the protein M of SARS-CoV Urbani [2]: 0.6
- Binding of Control serum LUMC to looped peptides of the protein M of SARS-CoV Urbani [2]: 0.8
- Binding of serum 1a to linear peptides of protein M of SARS-CoV Urbani [3]: 0.8
- Binding of serum 1a to looped/cyclic peptides of protein M of SARS-CoV Urbani [3]: 0.7
- Binding of serum 1b to linear peptides of protein M of SARS-CoV Urbani [3]: 0.6
- Binding of serum 1b to looped/cyclic peptides of protein M of SARS-CoV Urbani [3]: 0.0
- Binding of serum 2 to linear peptides of protein M of SARS-CoV Urbani [3]: 0.6
- Binding of serum 2 to looped/cyclic peptides of protein M of SARS-CoV Urbani [3]: 0.7
- Binding of serum 6 to linear peptides of protein M of SARS-CoV Urbani [3]: 0.4
- Binding of serum 6 to looped/cyclic peptides of protein M of SARS-CoV Urbani [3]: 0.5
- Binding of serum 37 to linear peptides of protein M of SARS-CoV Urbani [3]: 0.5
- Binding of serum 37 to looped/cyclic peptides of protein M of SARS-CoV Urbani [3]: 0.7
- Binding of serum 62 to linear peptides of protein M of SARS-CoV Urbani [3]: 0.5
- Binding of serum 62 to looped/cyclic peptides of protein M of SARS-CoV Urbani [3]: 0.7
- Binding of serum London to linear peptides of protein M of SARS-CoV Urbani [3]: 0.5
- Binding of serum London to looped/cyclic peptides of protein M of SARS-CoV Urbani [3]: 0.2
- Binding of serum SARS-green to linear peptides of protein M of SARS-CoV Urbani [3]: 0.6
- Binding of serum SARS-green to looped/cyclic peptides of protein M of SARS-CoV Urbani [3]: 0.3
- Binding of serum SARS-yellow to linear peptides of protein M of SARS-CoV Urbani [3]: 0.3
- Binding of serum SARS-yellow to looped/cyclic peptides of protein M of SARS-CoV Urbani [3]: 0.8

Sequence: VIGFLFLAWIMLLQF
- Rabbit serum linear peptides [1]: 0.3
- Rabbit serum looped peptides [1]: 0.3
- Binding of Control Serum Blood-Bank to Looped peptides of the protein M of SARS-CoV Urbani [2]: 0.7
- Binding of Control serum Blood-bank to linear peptides of the protein M of SARS-CoV Urbani [2]: 0.5
- Binding of Control serum LUMC to linear peptides of the protein M of SARS-CoV Urbani [2]: 0.3
- Binding of Control serum LUMC to looped peptides of the protein M of SARS-CoV Urbani [2]: 0.7
- Binding of serum 1a to linear peptides of protein M of SARS-CoV Urbani [3]: 0.7
- Binding of serum 1a to looped/cyclic peptides of protein M of SARS-CoV Urbani [3]: 0.7
- Binding of serum 1b to linear peptides of protein M of SARS-CoV Urbani [3]: 0.4
- Binding of serum 1b to looped/cyclic peptides of protein M of SARS-CoV Urbani [3]: 0.4
- Binding of serum 2 to linear peptides of protein M of SARS-CoV Urbani [3]: 0.4
- Binding of serum 2 to looped/cyclic peptides of protein M of SARS-CoV Urbani [3]: 0.5
- Binding of serum 6 to linear peptides of protein M of SARS-CoV Urbani [3]: 0.3
- Binding of serum 6 to looped/cyclic peptides of protein M of SARS-CoV Urbani [3]: 0.5
- Binding of serum 37 to linear peptides of protein M of SARS-CoV Urbani [3]: 0.7
- Binding of serum 37 to looped/cyclic peptides of protein M of SARS-CoV Urbani [3]: 0.5
- Binding of serum 62 to linear peptides of protein M of SARS-CoV Urbani [3]: 0.7
- Binding of serum 62 to looped/cyclic peptides of protein M of SARS-CoV Urbani [3]: 0.7
- Binding of serum London to linear peptides of protein M of SARS-CoV Urbani [3]: 0.3
- Binding of serum London to looped/cyclic peptides of protein M of SARS-CoV Urbani [3]: 0.2
- Binding of serum SARS-green to linear peptides of protein M of SARS-CoV Urbani [3]: 0.2
- Binding of serum SARS-green to looped/cyclic peptides of protein M of SARS-CoV Urbani [3]: 0.3
- Binding of serum SARS-yellow to linear peptides of protein M of SARS-CoV Urbani [3]: 0.0
- Binding of serum SARS-yellow to looped/cyclic peptides of protein M of SARS-CoV Urbani [3]: 0.6

Sequence: VIGVAFLAVFQSATK
- Binding of a rabbit serum to linear peptides [1]: 0.1
- Binding of a rabbit serum to looped peptides [1]: 0.6
- Binding of Control Serum Blood-Bank to Looped peptides [2]: 0.5
- Binding of Control serum Blood-bank to linear peptides [2]: 0.5
- Binding of Control serum LUMC to linear peptides [2]: 0.5
- Binding of Control serum LUMC to looped peptides [2]: 0.5
- Binding of serum 1a to linear peptides of protein X1 of SARS-CoV Urbani [3]: 0.5
- Binding of serum 1a to looped/cyclic peptide (PEPSCAN-ELISA) [3]: 0.4
- Binding of serum 1b to linear peptides of protein X1 of SARS-CoV Urbani [3]: 0.4
- Binding of serum 1b to looped/cyclic peptide (PEPSCAN-ELISA) [3]: 0.3
- Binding of serum 2 to linear peptides of protein X1 of SARS-CoV Urbani [3]: 0.4
- Binding of serum 2 to looped/cyclic peptide (PEPSCAN-ELISA) [3]: 0.3
- Binding of serum 6 to linear peptides of protein X1 of SARS-CoV Urbani [3]: 0.4
- Binding of serum 6 to looped/cyclic peptide (PEPSCAN-ELISA) [3]: 0.6
- Binding of serum 37 to linear peptides of protein X1 of SARS-CoV Urbani [3]: 0.5
- Binding of serum 37 to looped/cyclic peptide (PEPSCAN-ELISA) [3]: 0.4
- Binding of serum 62 to linear peptides of protein X1 of SARS-CoV Urbani [3]: 0.4
- Binding of serum 62 to looped/cyclic peptide (PEPSCAN-ELISA) [3]: 0.4
- Binding of serum London to linear peptides of protein X1 of SARS-CoV Urbani [3]: 0.2
- Binding of serum London to looped/cyclic peptide (PEPSCAN-ELISA) [3]: 0.7
- Binding of serum SARS-green to linear peptides of protein X1 of SARS-CoV Urbani [3]: 0.1
- Binding of serum SARS-green to looped/cyclic peptide (PEPSCAN-ELISA) [3]: 0.2
- Binding of serum SARS-yellow to linear peptides of protein X1 of SARS-CoV Urbani [3]: 0.2
- Binding of serum SARS-yellow to looped/cyclic peptide (PEPSCAN-ELISA) [3]: 0.5
